Test results: paper PMC10938783, “A novel pan-PI3K inhibitor KTC1101 synergizes with anti-PD-1 therapy by targeting tumor suppression and immune activation” (Molecular Cancer, 2024)
Read-outs that look alike come from different tables or passages of the source.

Tested on: JFCR39 panel of 39 human tumor cell lines
Experiment: JFCR39 panel growth inhibition, panel statistics
Format: cell-based
Settings: for GI50: Homo sapiens
Protocol: JFCR39 drug discovery system was used to measure the growth inhibitory activities and identify the target of KTC1101. The JFCR39 panel consists of 39 cell lines seeded in 96-well plates. After 48-h treatment with KTC1101, cell growth was measured using the sulforhodamine B assay. […] The deviation of log GI50 for each cell line from the average log GI50 across the JFCR39 panel was plotted as a fingerprint. MG-MID (mean of Log GI50 values) represents the average log GI50 for all 39 cell lines. The most sensitive and least sensitive cell lines were identified by calculating the difference in their log GI50 values (Range) and the difference between the most sensitive cell line and the average GI50 on the JFCR39 panel (Delta). The fingerprint of KTC1101 was compared with the fingerprints of reference compounds in the database. The Pearson correlation coefficient (r) was calculated (n = 39).

Q: With `COc1cc(N)cc2c1nc(C(F)F)n2-c1nc(N2CCCOCC2)nc(N2CCOCC2)n1` [KTC1101, 2-(difluoromethyl)-4-methoxy-1-(4-morpholino-6-(1,4-oxazepan-4-yl)-1,3,5-triazin-2-yl)-1H-benzo[d]imidazol-6-amine] as the compound, how does the GI50 (JFCR39 panel, read-out: mean GI50 across all 39 cell lines) read?
A: Its GI50 is 23.4 nM.

Q: What about the GI50 (all 39 cell lines, read-out: MG-MID (mean of Log GI50 values) (converted)) of the same compound?
A: Its GI50 is 23.4 nM.

Q: And the “fold lower mean GI50 than Copanlisib” value (JFCR39 panel)?
A: Its value is 5.7 fold.

Q: What about the “fold lower mean GI50 than ZSTK474” value (JFCR39 panel) of the same compound?
A: Its value is 13.7 fold.
